# Experiments:
# [1] = system: Sagittaria pygmaea, L.; assay: Preemergence weed control under flooded paddy conditions, SAGPY (Arrowhead (Pygmaea)); type: in vivo; details: preemergence, flooded paddy, rated three to four weeks after treatment
# [2] = system: Cyperus iria; assay: Postemergence weed control under flooded paddy conditions, CYPIR (Rice Flatsedge); type: in vivo; details: rated three to four weeks after treatment
# [3] = system: Echinochloa oryzoides (Ard.) Fritsch.; assay: Preemergence weed control under flooded paddy conditions, ECHORC (Watergrass (Calif.)); type: in vivo; details: preemergence, flooded paddy, rated three to four weeks after treatment
# [4] = system: Cyperus serotinus, Rottb.; assay: Preemergence weed control under flooded paddy conditions, CYPSE (Flatsedge); type: in vivo; details: preemergence, rated three to four weeks after treatment
# [5] = system: Oryza sativa, (L.) Tebonnet; assay: Rice tolerance to post-transplant applications under flooded paddy conditions (Example 188), ORYSAT (Rice, Tebonnet); details: rated three to four weeks after treatment
# [6] = system: Monochoria vaginalis, Presl.; assay: Preemergence weed control under flooded paddy conditions, MOOVA (Monochoria); type: in vivo; details: preemergence, flooded paddy, rated three to four weeks after treatment
# [7] = system: Monochoria vaginalis, Presl.; assay: Postemergence weed control under flooded paddy conditions, MOOVA (Monochoria); type: in vivo; details: rated three to four weeks after treatment
# [8] = system: Sagittaria pygmaea, L.; assay: Postemergence weed control under flooded paddy conditions, SAGPY (Arrowhead (Pygmaea)); type: in vivo; details: rated three to four weeks after treatment
# [9] = system: Oryza sativa, (L.) Tebonnet; assay: Rice tolerance to post-transplant applications under flooded paddy conditions (Example 187), ORYSAT (Rice, Tebonnet); details: rated three to four weeks after treatment
# [10] = system: Echinochloa oryzoides (Ard.) Fritsch.; assay: Postemergence weed control under flooded paddy conditions, ECHORC (Watergrass (Calif.)); type: in vivo; details: rated three to four weeks after treatment
# [11] = system: Cyperus serotinus, Rottb.; assay: Postemergence weed control under flooded paddy conditions, CYPSE (Flatsedge); type: in vivo; details: rated three to four weeks after treatment
# [12] = system: Cyperus iria; assay: Preemergence weed control under flooded paddy conditions, CYPIR (Rice Flatsedge); type: in vivo; details: preemergence, flooded paddy, rated three to four weeks after treatment
smiles,measurement,setting,value
"COC(=O)COc1ccc(C)cc1-c1noc2ccc(-n3c(=O)cc(C(F)(F)F)n(C)c3=O)c(Cl)c12 [Example 261, Acetic acid, {{2-{4-chloro-5-[3,6-dihydro-3-methyl-2,6-dioxo-4-(trifluoromethyl)-1(2H)-pyrimidinyl]-1,2-benzisoxazol-3-yl}-p-tolyl}oxy}-, methyl ester]",SAGPY herbicidal effect rating,[1]; Rate 0.0320 kg/ha,0.0
same,SAGPY herbicidal effect rating,[1]; Rate 0.0620 kg/ha,0.0
same,SAGPY herbicidal effect rating,[1]; Rate 0.1250 kg/ha,0.0
same,SAGPY herbicidal effect rating,[1]; Rate 0.2500 kg/ha,0.0
same,"herbicidal effect rating, CYPIR",[2]; Rate 0.0320 kg/ha,5.0
same,"herbicidal effect rating, CYPIR",[2]; Rate 0.0620 kg/ha,6.0
same,"herbicidal effect rating, CYPIR",[2]; Rate 0.1250 kg/ha,6.0
same,"herbicidal effect rating, CYPIR",[2]; Rate 0.2500 kg/ha,6.0
same,ECHORC herbicidal effect rating,[3]; Rate 0.0320 kg/ha,2.5
same,ECHORC herbicidal effect rating,[3]; Rate 0.0620 kg/ha,2.0
same,ECHORC herbicidal effect rating,[3]; Rate 0.1250 kg/ha,2.0
same,ECHORC herbicidal effect rating,[3]; Rate 0.2500 kg/ha,0.0
same,CYPSE herbicidal effect rating,[4]; Rate 0.0320 kg/ha,4.5
same,CYPSE herbicidal effect rating,[4]; Rate 0.0620 kg/ha,4.5
same,CYPSE herbicidal effect rating,[4]; Rate 0.1250 kg/ha,4.5
same,CYPSE herbicidal effect rating,[4]; Rate 0.2500 kg/ha,0.0
same,"herbicidal effect rating, ORYSAT (rice tolerance)",[5]; Rate 0.0320 kg/ha,0.0
same,"herbicidal effect rating, ORYSAT (rice tolerance)",[5]; Rate 0.0620 kg/ha,0.0
same,"herbicidal effect rating, ORYSAT (rice tolerance)",[5]; Rate 0.1250 kg/ha,0.0
same,"herbicidal effect rating, ORYSAT (rice tolerance)",[5]; Rate 0.2500 kg/ha,0.0
same,MOOVA herbicidal effect rating,[6]; Rate 0.0320 kg/ha,4.5
same,MOOVA herbicidal effect rating,[6]; Rate 0.0620 kg/ha,4.5
same,MOOVA herbicidal effect rating,[6]; Rate 0.1250 kg/ha,6.0
same,MOOVA herbicidal effect rating,[6]; Rate 0.2500 kg/ha,3.0
same,"herbicidal effect rating, MOOVA",[7]; Rate 0.0320 kg/ha,9.0
same,"herbicidal effect rating, MOOVA",[7]; Rate 0.0620 kg/ha,9.0
same,"herbicidal effect rating, MOOVA",[7]; Rate 0.1250 kg/ha,9.0
same,"herbicidal effect rating, MOOVA",[7]; Rate 0.2500 kg/ha,9.0
same,"herbicidal effect rating, SAGPY",[8]; Rate 0.0320 kg/ha,0.0
same,"herbicidal effect rating, SAGPY",[8]; Rate 0.0620 kg/ha,0.0
same,"herbicidal effect rating, SAGPY",[8]; Rate 0.1250 kg/ha,0.0
same,"herbicidal effect rating, SAGPY",[8]; Rate 0.2500 kg/ha,0.0
same,ORYSAT herbicidal effect rating,[9]; Rate 0.0320 kg/ha,0.0
same,ORYSAT herbicidal effect rating,[9]; Rate 0.0620 kg/ha,0.0
same,ORYSAT herbicidal effect rating,[9]; Rate 0.1250 kg/ha,0.0
same,ORYSAT herbicidal effect rating,[9]; Rate 0.2500 kg/ha,0.0
same,"herbicidal effect rating, ECHORC",[10]; Rate 0.0320 kg/ha,0.0
same,"herbicidal effect rating, ECHORC",[10]; Rate 0.0620 kg/ha,0.0
same,"herbicidal effect rating, ECHORC",[10]; Rate 0.1250 kg/ha,0.0
same,"herbicidal effect rating, ECHORC",[10]; Rate 0.2500 kg/ha,0.0
same,"herbicidal effect rating, CYPSE",[11]; Rate 0.0320 kg/ha,0.0
same,"herbicidal effect rating, CYPSE",[11]; Rate 0.0620 kg/ha,0.0
same,"herbicidal effect rating, CYPSE",[11]; Rate 0.1250 kg/ha,0.0
same,"herbicidal effect rating, CYPSE",[11]; Rate 0.2500 kg/ha,0.0
same,CYPIR herbicidal effect rating,[12]; Rate 0.0320 kg/ha,4.0
same,CYPIR herbicidal effect rating,[12]; Rate 0.0620 kg/ha,4.5
same,CYPIR herbicidal effect rating,[12]; Rate 0.1250 kg/ha,5.5
same,CYPIR herbicidal effect rating,[12]; Rate 0.2500 kg/ha,2.0

# Source: patent publication EP0908457B1, “3-(1,2-benzisothiazol- and isoxazol-5-Y1)-2,4(1H,3H)-pyrimidinedione or thione and 3-(1,2-benzisothiazol- and isoxazol-5-y1)-4(3H)-pyrimidinone or thione herbicidal agents” (BASF AKTIENGESELLSCHAFT, priority 1997, dated 1999)
